Measured values taken from patent US20080131475A1, “Methods of Use of Dual Ppar Agonist Compounds and Drug Delivery Devices Containing Such Compounds” (priority 2005, published 2008).

Columns and labels:
[1] = system: restenotic lesion and arterial stenosis in stented coronary arteries; assay: swine model of restenosis with coronary stents eluting Compound A; assay type: in vivo; details: juvenile swine, poly-n-butyl methacrylate coated stent containing 200 mg Compound A per stent, coronary artery, 7 or 28 days
Procedure: (§1) The treatment and/or prevention of restenosis in vivo in diabetics and non-diabetics can be evaluated as follows: • 1. The beneficial effects of a compound of the present invention on restenosis are ascertained in a swine model of restenosis. Stainless steel balloon-expandable tubular stents, 18 mm long, are coated with a thin layer of a polymer, i.e., poly-n-butyl methacrylate, containing […] of (R)-1-{4-[5-methyl-2-(4-trifluoromethyl-phenyl)-oxazol-4-ylmethoxy]-benzenesulfonyl}-2,3-dihydro-1H-indole-2-carboxylic acid (Compound A) per stent. Juvenile swine (25-35 kg) undergo placement of bare metal stents which elute Compound A in the left anterior descending, circumflex or right coronary artery. The guiding catheter is used as a reference to obtain a 1.2:1 to 1.4:1 stent-to-artery ratio compared with the baselinevessel diameter. […] At 7 days or 28 days, the animals are euthanized after completion of coronary angiography for quantitative analysis. • Immediately following euthanasia, the hearts are harvested, and the coronary arteries are perfusion-fixed with 10% buffered formalin at 60-80 mm Hg for 30 minutes via the aortic stump. […] Vessel wall expression of proliferating cell nuclear antigen (PCNA) (Santa Cruz Biotechnology), pRb (Pharmingen), monocyte chemotactic protein (MCP)-1 (R&D Systems) or interleukin (IL)-6 (R&D Systems) were evaluated by Western blot analysis. […]

[2] = system: restenotic lesion formation and arterial stenosis in diabetic swine; assay: diabetic swine model of restenosis; assay type: in vivo; details: streptozotocin-diabetic juvenile swine, procedure as in non-diabetic stent model
Procedure: as §1

[3] = drug release from coated stent pieces in PBS pH 7.4 or PEG/water; assay type: physicochemical; details: 2 cm coated stent pieces, PBS pH 7.4 or PEG 400/water 40/60 v/v, 37° C., solutions changed daily
Procedure: Four 2 cm pieces of coated stents as described above are placed into 100 mL of phosphate buffer solution (PBS) having a pH of 7.4. Another 4 pieces from each series are placed into 100 mL polyethylene glycol (PEG)/water solution (40/60 v/v, MW of PEG=400). The stent pieces are incubated at 37° C. in a shaker. The buffer and PEG solutions are changed daily and different assays are performed on the solution to determine the released (R)-1-{4-[5-methyl-2-(4-trifluoromethyl-phenyl)-oxazol-4-ylmethoxy]-benzenesulfonyl}-2,3-dihydro-1H-indole-2-carboxylic acid concentrations. Such assays can show a stable release of (R)-1-{4-[5-methyl-2-(4-trifluoromethyl-phenyl)-oxazol-4-ylmethoxy]-benzenesulfonyl}-2,3-dihydro-1H-indole-2-carboxylic acid from coated stents for more than 45 days. By the term “stable-release of (R)-1-{4-[5-methyl-2-(4-trifluoromethyl-phenyl)-oxazol-4-ylmethoxy]-benzenesulfonyl}-2,3-dihydro-1H-indole-2-carboxylic acid” is meant less than 10% of variation of the drug release. Controlled-release techniques used by a person skilled in the art allow an unexpected easy adaptation of the required drug release rate. […]

SMILES: Cc1oc(-c2ccc(C(F)(F)F)cc2)nc1COc1ccc(S(=O)(=O)N2c3ccccc3C[C@@H]2C(=O)O)cc1 [Compound A, (R)-1-{4-[5-methyl-2-(4-trifluoromethyl-phenyl)-oxazol-4-ylmethoxy]-benzenesulfonyl}-2,3-dihydro-1H-indole-2-carboxylic acid]
- extent of restenotic lesion and arterial stenosis [1]: marked reduction
- extent of restenotic lesion formation and arterial stenosis [2]: reduction
- duration of stable release from coated stents (less than 10% of variation of the drug release) [3]: more than 45 days
